Laboratory results taken from paper PMC11923102 (Nature Communications, 2025).
Numbering of substitutions follows the chain as printed. Like-named read-outs stand apart in the source and are kept apart here. Blank lines part the entries; values can stand above or below the molecule they belong to.

Tests used:
Type in all cases: cell-based
TRPV3 (hTRPV3) [1] = biological target: T1, TRPV3 (hTRPV3) (Homo sapiens, UniProt Q8NET8); test: cryo-EM structure
T1 sequence (Q8NET8 1-790): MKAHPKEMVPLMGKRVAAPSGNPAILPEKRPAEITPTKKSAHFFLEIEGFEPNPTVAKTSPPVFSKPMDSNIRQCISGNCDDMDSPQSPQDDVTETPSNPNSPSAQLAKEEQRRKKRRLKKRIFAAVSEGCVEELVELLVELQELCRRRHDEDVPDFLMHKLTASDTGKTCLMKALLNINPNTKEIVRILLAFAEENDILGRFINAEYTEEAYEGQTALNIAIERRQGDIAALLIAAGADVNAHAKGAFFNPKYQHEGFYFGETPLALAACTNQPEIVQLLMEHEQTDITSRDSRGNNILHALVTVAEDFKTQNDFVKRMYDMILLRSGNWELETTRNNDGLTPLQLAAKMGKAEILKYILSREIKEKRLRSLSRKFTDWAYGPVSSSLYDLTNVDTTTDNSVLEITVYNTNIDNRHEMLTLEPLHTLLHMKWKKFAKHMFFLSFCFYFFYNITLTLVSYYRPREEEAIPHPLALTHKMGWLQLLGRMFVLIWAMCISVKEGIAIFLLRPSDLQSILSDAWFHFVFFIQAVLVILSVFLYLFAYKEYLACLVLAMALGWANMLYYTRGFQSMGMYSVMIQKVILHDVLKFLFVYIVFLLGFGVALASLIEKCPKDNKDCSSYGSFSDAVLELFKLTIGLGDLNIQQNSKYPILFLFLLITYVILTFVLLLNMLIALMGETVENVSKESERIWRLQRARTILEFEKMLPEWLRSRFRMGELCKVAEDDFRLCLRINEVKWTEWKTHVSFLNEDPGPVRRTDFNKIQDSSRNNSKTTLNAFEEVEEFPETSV

mTRPV3 = biological target: T2, mTRPV3 (Mus musculus, UniProt Q8K424); test: whole-cell patch clamp, inhibition of citronellal-evoked currents
T2 sequence (Q8K424 1-791): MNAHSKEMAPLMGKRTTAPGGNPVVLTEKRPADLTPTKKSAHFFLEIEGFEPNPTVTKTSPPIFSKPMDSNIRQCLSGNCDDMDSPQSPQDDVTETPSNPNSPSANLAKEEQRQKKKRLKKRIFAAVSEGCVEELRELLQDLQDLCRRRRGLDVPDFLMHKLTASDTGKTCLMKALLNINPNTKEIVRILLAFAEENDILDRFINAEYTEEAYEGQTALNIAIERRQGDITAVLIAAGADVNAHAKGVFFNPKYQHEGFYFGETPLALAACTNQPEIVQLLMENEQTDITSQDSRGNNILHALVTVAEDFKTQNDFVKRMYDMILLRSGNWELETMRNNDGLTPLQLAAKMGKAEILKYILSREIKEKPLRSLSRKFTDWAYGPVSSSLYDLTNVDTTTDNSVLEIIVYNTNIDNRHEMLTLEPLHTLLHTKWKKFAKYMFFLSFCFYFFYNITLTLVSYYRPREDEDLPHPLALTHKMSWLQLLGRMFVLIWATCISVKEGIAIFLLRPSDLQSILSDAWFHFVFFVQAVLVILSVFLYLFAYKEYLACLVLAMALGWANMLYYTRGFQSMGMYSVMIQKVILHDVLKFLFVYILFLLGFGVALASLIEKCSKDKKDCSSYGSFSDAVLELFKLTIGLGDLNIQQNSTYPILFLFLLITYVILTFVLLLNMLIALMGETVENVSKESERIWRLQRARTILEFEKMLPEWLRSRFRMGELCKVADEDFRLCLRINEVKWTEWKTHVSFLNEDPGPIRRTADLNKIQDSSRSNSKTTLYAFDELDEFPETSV

TRPV3 (hTRPV3) [2] = biological target: T1, TRPV3 (hTRPV3); test: cryo-EM structure; remark: listed apart in the source
TRPV3 (hTRPV3) [3] = biological target: T3, TRPV3 (hTRPV3) (Homo sapiens, UniProt Q8NET8, Q695L); test: whole-cell patch clamp
T3 sequence (Q8NET8 1-790 Q695L): T1 sequence (Q8NET8 1-790) with Q695L

EC50 (TRPV3 (hTRPV3) [1]): 6.61 ± 0.93 mM
SMILES: CC(C)=CCC/C(C)=C/C=O [citral]

IC50 (mTRPV3): 0.00073 ± 5e-05 mM
SMILES: CCCCOc1ccc(C(=O)CCN2CCCCC2)cc1 [dyclonine]

EC50 (TRPV3 (hTRPV3) [2]): 6.19 ± 0.6 mM
EC50 (TRPV3 (hTRPV3) [3]): 0.42 ± 0.02 mM
SMILES: C=CC(C)(O)CCC=C(C)C (stereo not shown) [linalool]
